Assays:
Assay in all cases: relative viability (nuclei count vs DMSO), 5 days (fraction); higher = more cells survive
A-427 = tested on: A-427
Outline: (§1)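 Lung cancer cell lines in 1536-well plates got either a single drug or a fixed anchor-drug dose together with five library-drug doses (not always all listed) in √10 steps, by pin tool, on the day after seeding. Nuclei were counted after 5 days, and relative viability is the treated-to-vehicle ratio of nuclei counts. Values are medians of duplicate plates.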

COR-L 105 = tested on: COR-L 105
Outline: as §1

ChaGo-K-1 = tested on: ChaGo-K-1
Outline: as §1

EKVX = tested on: EKVX
Outline: as §1

EMC-BAC-2 = tested on: EMC-BAC-2
Outline: as §1

H3255 = tested on: H3255
Outline: as §1

HCC-366 = tested on: HCC-366
Outline: as §1

LK-2 = tested on: LK-2
Outline: as §1

LOU-NH91 = tested on: LOU-NH91
Outline: as §1

NCI-H1666 = tested on: NCI-H1666
Outline: as §1

NCI-H1734 = tested on: NCI-H1734
Outline: as §1

For NC(=O)Nc1cc(-c2cccc(F)c2)sc1C(=O)N[C@H]1CCCNC1 [AZD7762] + CC(=O)Nc1cccc(-n2c(=O)n(C3CC3)c(=O)c3c(Nc4ccc(I)cc4F)n(C)c(=O)c(C)c32)c1 [Trametinib] (partner 0.02 µM), the relative viability (A-427; first compound 0.01 µM) was 0.82, the relative viability (A-427; first compound 0.03162 µM) was 0.849 and the relative viability (A-427; first compound 0.1 µM) was 0.772. It also gave a relative viability (A-427; first compound 0.3162 µM) of 0.655, a relative viability (A-427; first compound 1 µM) of 0.331 and a relative viability (COR-L 105; first compound 0.01 µM) of 0.435. The relative viability (COR-L 105; first compound 0.03162 µM) was 0.462, the relative viability (COR-L 105; first compound 0.1 µM) was 0.416 and the relative viability (COR-L 105; first compound 0.3162 µM) was 0.444. It also gave a relative viability (COR-L 105; first compound 1 µM) of 0.43, a relative viability (ChaGo-K-1; first compound 0.01 µM) of 0.871 and a relative viability (ChaGo-K-1; first compound 0.03162 µM) of 0.914. For the same molecule, the relative viability (ChaGo-K-1; first compound 0.1 µM) was 0.93, the relative viability (ChaGo-K-1; first compound 0.3162 µM) was 0.9 and the relative viability (ChaGo-K-1; first compound 1 µM) was 0.958. It also gave a relative viability (EKVX; first compound 0.01 µM) of 0.345, a relative viability (EKVX; first compound 0.03162 µM) of 0.502 and a relative viability (EKVX; first compound 0.1 µM) of 0.371. It also gave a relative viability (EKVX; first compound 0.3162 µM) of 0.314, a relative viability (EKVX; first compound 1 µM) of 0.279 and a relative viability (EMC-BAC-2; first compound 0.01 µM) of 1.02. The relative viability (EMC-BAC-2; first compound 0.03162 µM) was 0.84, the relative viability (EMC-BAC-2; first compound 0.1 µM) was 0.921 and the relative viability (EMC-BAC-2; first compound 0.3162 µM) was 0.973. It also gave a relative viability (EMC-BAC-2; first compound 1 µM) of 0.839, a relative viability (H3255; first compound 0.01 µM) of 0.71 and a relative viability (H3255; first compound 0.03162 µM) of 0.72. It also gave a relative viability (H3255; first compound 0.1 µM) of 0.698, a relative viability (H3255; first compound 0.3162 µM) of 0.618 and a relative viability (H3255; first compound 1 µM) of 0.682. It also gave a relative viability (HCC-366; first compound 0.01 µM) of 0.358, a relative viability (HCC-366; first compound 0.03162 µM) of 0.329 and a relative viability (HCC-366; first compound 0.1 µM) of 0.363. The relative viability (HCC-366; first compound 0.3162 µM) was 0.325, the relative viability (HCC-366; first compound 1 µM) was 0.13 and the relative viability (LK-2; first compound 0.01 µM) was 0.794. The relative viability (LK-2; first compound 0.03162 µM) was 0.552, the relative viability (LK-2; first compound 0.1 µM) was 0.845 and the relative viability (LK-2; first compound 0.3162 µM) was 0.617. The relative viability (LK-2; first compound 1 µM) was 0.562, the relative viability (LOU-NH91; first compound 0.01 µM) was 0.78 and the relative viability (LOU-NH91; first compound 0.03162 µM) was 0.793. It also gave a relative viability (LOU-NH91; first compound 0.1 µM) of 0.761, a relative viability (LOU-NH91; first compound 0.3162 µM) of 0.66 and a relative viability (LOU-NH91; first compound 1 µM) of 0.67. The relative viability (NCI-H1666; first compound 0.01 µM) was 0.894, the relative viability (NCI-H1666; first compound 0.03162 µM) was 0.898 and the relative viability (NCI-H1666; first compound 0.1 µM) was 0.927. It also gave a relative viability (NCI-H1666; first compound 0.3162 µM) of 0.891, a relative viability (NCI-H1666; first compound 1 µM) of 0.901 and a relative viability (NCI-H1734; first compound 0.01 µM) of 0.761. It also gave a relative viability (NCI-H1734; first compound 0.03162 µM) of 0.683, a relative viability (NCI-H1734; first compound 0.1 µM) of 0.812 and a relative viability (NCI-H1734; first compound 0.3162 µM) of 0.641. The relative viability (NCI-H1734; first compound 1 µM) was 0.562.

From the supplement of paper PMC10307832
